Experiments:
Fαi1GDPβ1γ2 heterotrimer = target: T1, Fαi1GDPβ1γ2 heterotrimer (UniProt P54311+P63212); assay: Dissociation of Fαi1 from preformed Fαi1β1γ2 heterotrimer (flow cytometry); type: binding; settings: result in words
T1 construct: made in house; host or cells: b-βγ: Sf9 insect cells
Description: Assays were used to determine peptide effects on Gα-Gβγ interactions included competition and dissociation assays (Ghosh, et al. (2003) supra). […] To measure dissociation of Fan from b-Gβaγ2, 100 pM of Fa^ was incubated with 50 pM immobilized b-Gβ1γ2 at room temperature for 15-20 minutes. The fluorescence of bound Fαii subunit was measured, followed by the addition of a 200-fold excess of unlabeled Gcx±x or peptides and the amount of Fan remaining bound to the beads was measured at the indicated times.
The ability of peptides to dissociate a preformed hetero-trimer was assessed by comparing the rates of Fαi1 dissociation from Fαi1β1γ2 with excess unlabeled αi1 competitor (intrinsic dissocia-tion rate) and in the presence of a saturating concentration of peptide.

PLCβ2 = settings: Scott, et al. (2001); read-out: IC50 for inhibition of PLC β2 activation by Gβ1γ2; cited from earlier work
[1] = tested on: human δ opioid receptor (hDOR-CHO cells); assay: Total inositol phosphate assay in hDOR-CHO cells; type: cell-based; settings: DPDPE, Deltorphin II, M119 10 μM; naltrindole 100 μM; result in words
Description: (§1) Chinese hamster ovary (CHO) cells stably expressing either the human κ (hKOR-CHO), δ (hDOR-CHO)(L. Toll, Stanford Research Institute, Palo Alto, Calif.) or μ (hMOR-CHO)(G. Uhl, National Institute on Drug Abuse, Baltimore, Md.) opioid receptor were used in the experiments. Cells in 6-well plates were labeled by adding 4 μCi of [^3H]inositol for 24 hr in inositol-free F-10 media, without serum. After labeling, LiCl was added directly to the labeling media at a final concentration of 10 mM. Ligands or peptides were added at the same time. The final volume of each well was 1 mL. The plates were put back in to the incubator at 37° C. for 30 min after which time the medium was aspirated and the plates were washed twice with 1× PBS. Ice-cold 50 mM formic acid, 1 mL, was added to the plates which were placed in the cold room at 4° C. for 30 min. After the incubation, the contents of the plates were applied to Dowex AG1-X8 columns and allowed to flow all the way through the column. The columns were washed, twice each, with 50 and 100 mM formic acid, for a total of four washes, followed by elution of the IP-containing fraction with 3 mL of 1.2 M ammonium formate/0.1 M formic acid. The eluted fraction was mixed with Scintisafe scintillation fluid, for high salt, and counted. The data are represented as the fold increase over control in total inositol phospates. All experiments were repeated three times and performed in duplicate. Control cells for each experiment were labeled with [^3H]inositol and LiCl, in the same manner as the treatment groups.

[2] = tested on: opioid-induced antinociception in mice; assay: 55° C. warm-water tail-flick antinociception; type: in vivo, mouse; settings: i.c.v., 20 min, 55° C. tail-flick; 95% CL in parentheses
[3] = tested on: human μ opioid receptor (hMOR-CHO cells); assay: Total inositol phosphate assay in hMOR-CHO cells; type: cell-based
Description: as §1

T1 sequence (P54311 whole entry): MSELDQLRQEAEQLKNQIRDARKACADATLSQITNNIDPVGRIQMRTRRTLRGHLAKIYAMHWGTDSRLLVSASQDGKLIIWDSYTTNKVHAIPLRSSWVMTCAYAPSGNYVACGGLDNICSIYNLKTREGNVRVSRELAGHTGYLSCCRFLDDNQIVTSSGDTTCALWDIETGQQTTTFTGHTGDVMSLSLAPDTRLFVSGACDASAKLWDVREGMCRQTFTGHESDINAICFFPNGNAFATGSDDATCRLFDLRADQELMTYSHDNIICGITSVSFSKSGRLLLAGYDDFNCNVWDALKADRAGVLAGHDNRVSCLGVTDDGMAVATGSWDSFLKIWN
T1 sequence (P63212 2-68 limits assumed): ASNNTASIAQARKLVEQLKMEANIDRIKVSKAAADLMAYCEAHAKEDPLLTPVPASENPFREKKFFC

Compound	promotion/acceleration of heterotrimer dissociation (Fαi1GDPβ1γ2 heterotrimer)	IC50 (PLCβ2)	effect on IP generation over control treated cells [1]	ED50 of opioid agonist alone [2]	effect of compound by itself on IP production [3]
CC[C@H](C)[C@H](NC(=O)[C@H](CC(N)=O)NC(=O)[C@H](CC(C)C)NC(=O)[C@H](C)NC(=O)[C@H](CCCCN)NC(=O)[C@H](CCCNC(=N)N)NC(=O)[C@@H](NC(=O)[C@@H](N)CO)[C@@H](C)CC)C(=O)N[C@@H](CC(C)C)C(=O)NCC(=O)N[C@@H](Cc1ccc(O)cc1)C(=O)N1CCC[C@H]1C(=O)N[C@@H](CC(=O)O)C(=O)N[C@@H](Cc1ccc(O)cc1)C(=O)N[C@@H](CC(=O)O)C(=O)O [SIRK]	promotes dissociation	5 µM			
Oc1ccc2c3c1O[C@H]1c4[nH]c5ccccc5c4C[C@@]4(O)[C@@H](C2)N(CC2CC2)CC[C@]314 [naltrindole]			no significant effect		
[D-Pen^2,D-Pen^5]enkephalin [DPDPE]			neither DPDPE (10 μM) (FIG. 15C) nor Deltorphin II (10 μM) (FIG. 15D) significantly increased IP generation	6.5 nmol	no effect

— patent US8975259B2, “Compositions and methods for inhibiting G protein signaling” (University of Rochester, priority 2007, dated 2015)
